According to ChEMBL document CHEMBL3856207, “Kinetic, thermodynamic and structural analysis of tamiphosphor binding to neuraminidase of H1N1 (2009) pandemic influenza” (Eur J Med Chem, 2016):
Activity calls are given as the source filed them. The rule behind the calls is not given here.

What was measured:
[1] = Inhibition of Influenza A virus (A/California/07/2009(H1N1)) recombinant wild type N-terminal FLAG-tagged neuraminidase ectodomain (82 to 469 residues) transfected in Drosophila Schneider S2 cells using 4-MUNANA as substrate after 20 mins by fluorometric method
S2 = experiment: Binding affinity to Influenza A virus (A/California/07/2009(H1N1)) recombinant wild type N-terminal FLAG-tagged neuraminidase catalytic domain transfected in Drosophila Schneider S2 cells at 76 to 93 uM by isothermal titration calorimetric method

SMILES | Ki [1] [nM] | Activity (S2)
CCC(CC)O[C@@H]1C=C(P(=O)(O)O)C[C@H](NC(=N)N)[C@H]1NC(C)=O | 140 | –
CCC(CC)O[C@@H]1C=C(P(=O)(O)OC)C[C@H](N)[C@H]1NC(C)=O | 39 | –
CCC(CC)O[C@@H]1C=C(C(=O)O)C[C@H](NC(=N)N)[C@H]1NC(C)=O | 46 | –
CCC(CC)O[C@@H]1C=C(C(=O)O)C[C@H](N)[C@H]1NC(C)=O [OSELTAMIVIR CARBOXYLATE] | – | Active
CCC(CC)O[C@@H]1C=C(P(=O)(O)O)C[C@H](N)[C@H]1NC(C)=O [TAMIPHOSPHOR] | 26 | Active
